Laboratory results as given in US8058243B2, “Method for treating a brain cancer with ifenprodil” (HSC Research and Development Limited Partnership, priority 2006, dated 2011).
Where a name gives a salt, the structure may show the parent alone. Read-outs that look alike come from different tables or passages of the source.

System: murine neural precursor cells (neurosphere cultures)
Experiment: HTS of LOPAC library against secondary neurosphere cultures, MTT proliferation assay at 3 μM, day 7 (z score, P value)
Assay type: cell-based, mouse
[1] = LOPAC primary screen, neurosphere MTT proliferation, 3 μM, day 7
[2] = yes/no: significantly inhibited neurosphere proliferation (P<0.01) in primary screen
[3] = LOPAC library screen at 3 μM, secondary neurosphere cultures, MTT
[4] = LOPAC screen, neurosphere MTT proliferation, 3 μM, day 7
[5] = LOPAC library screen, 3 μM, MTT, secondary neurosphere cultures, day 7
[6] = yes = significantly inhibited neurosphere proliferation (P<0.01) in the primary screen
[7] = yes/no: significantly inhibited neurosphere proliferation (P<0.01) in the primary screen
[8] = primary LOPAC screen, 3 μM, MTT, neurosphere proliferation
[9] = yes/no: significantly inhibited neurosphere proliferation in the primary screen
[10] = LOPAC library screen, 3 μM, MTT, neurosphere cultures
[11] = yes/no: significantly inhibited neurosphere proliferation in primary screen

Cl.NC(N)=NCCNS(=O)(=O)c1cccc2cnccc12 [HA-1004 hydrochloride]
Z Score: 0.3161 | Z score [1]: 0.316 | Activity [2]: no

O=P(O)(O)C(Cl)(Cl)P(=O)(O)O [Clodronic acid]
Z Score [3]: −0.1842 | Z score [4]: −0.184 | Activity [2]: no

COC(=O)[C@@H](N)CCCN=C(N)N[N+](=O)[O-].Cl
Z Score [5]: −1.411 | Z score [1]: −1.411 | Activity [6]: no

COc1cc2ncnc(Nc3cccc(Cl)c3)c2cc1OC [Tyrphostin AG 1478]
Z Score (LOPAC library screen at 3 μM, MTT, secondary neurosphere cultures, screened in singlets): 1.87 | Z score [1]: 1.870 | Activity [7]: no

Cl.Cl.Clc1cccc(N2CCNCC2)c1 [1-(3-Chlorophenyl)piperazine dihydrochloride]
Z score [4]: 0.952 | Activity [2]: no

Cc1cccc(C)c1N=C1NCCCS1 [Xylazine hydrochloride]
Z Score: 0.3755 | Z score [8]: 0.375 | Activity [9]: no

CCCN(CCC)[C@H]1CCc2c(F)ccc(O)c2C1.Cl [S(−)-UH-301 hydrochloride]
Z Score: −2.706 | Z score [1]: −2.706 | Activity [7]: yes

CCOC(=O)C1=C[C@]2(CC)CCCN3CCc4c(n1c1ccccc41)[C@@H]32 [Vinpocetine]
Z Score [10]: 0.4329 | Z score [8]: 0.433 | Activity [9]: no

CCCN(CCC)CCc1c[nH]c2ccc(C(N)=O)cc12.O=C(O)/C=C\C(=O)O
Z Score: −1.73 | Z score [4]: −1.730 | Activity [2]: no

CC(C)NCC(O)COc1cccc2[nH]ccc12 (stereo not drawn) [S(−)-Pindolol]
Z score [1]: −1.122 | Z score [4]: −0.965 | Activity [2]: no | Activity [11]: no

CC[C@H](CO)Nc1nc(NCc2ccccc2)c2ncn(C(C)C)c2n1 [Roscovitine]
Activity: no | Z Score: 0.00273 | Z score: 0.003

CC[C@@H]1/C=C/C=C/C[C@H](C)[C@H](O)[C@](C)(O)C(=O)[C@H](C)[C@@H](O)[C@H](C)C(=O)[C@H](C)[C@@H](O)[C@H](C)/C=C/C(=O)O[C@H]2[C@@H](C)[C@@H](CC1)O[C@@]1(CC[C@@H](C)[C@@H](C[C@H](C)O)O1)[C@@H]2C [Oligomycin A]
Z Score [5]: −9.731 | Z score [1]: −9.731 | Activity [6]: yes

CC(=O)O.CSC(=N)NCCC[C@H](N)C(=O)O [S-Methyl-L-thiocitrulline acetate]
Z Score: −1.751 | Z score [1]: −1.751 | Activity [6]: no

CCCCCCCCCCCCCCCCCC(=O)NCC(COP(=O)([O-])OCC[N+](C)(C)C)OCC (racemic) [rac-2-Ethoxy-3-octadecanamido-1-propylphosphocholine]
Z Score [3]: −1.112 | Z score [1]: −1.112 | Activity [2]: no

C=C(C)[C@H]1CN[C@H](C(=O)O)[C@H]1CC(=O)O [Kainic acid]
Z Score: −0.3169 | Z score [1]: −0.317 | Activity [2]: no

Cc1ccc(/C(=C\CN2CCCC2)c2ccccn2)cc1 [Triprolidine hydrochloride]
Z Score [3]: −0.4061 | Z score [1]: −0.406 | Activity [11]: no

Cc1c(OCC(F)(F)F)ccnc1C[S+]([O-])c1nc2ccccc2[nH]1 (centres unmarked) [Lansoprazole]
Z Score [10]: −0.0336 | Z score [1]: −0.034 | Activity [2]: no

Nc1ncnc2c1nc(Sc1ccc(Cl)cc1)n2C1OC2COP(=O)(O)OC2C1O (stereo in doubt) [8-(4-Chlorophenylthio)-cAMP sodium]
Z Score [10]: 1.217 | Z score [4]: 1.217 | Activity [2]: no

Cl.N[C@@H](Cc1c[nH]cn1)C(=O)O [L-Histidine hydrochloride]
Z Score: −1.421 | Z score [1]: −1.421 | Activity [2]: no

Cl.c1ccc([C@H]2CN3CCSC3=N2)cc1 [(−)-Teramisole hydrochloride]
Z score [1]: −1.866 | Activity [2]: no

O=C1N=c2cc(Cl)c(Cl)cc2=NC1=O [6,7-Dichloroquinoxaline-2,3-dione]
Z Score [10]: 0.1274 | Z score [4]: 0.127 | Activity [2]: no

N[C@@H](Cc1ccc(O)c(I)c1)C(=O)O [3-Iodo-L-tyrosine]
Z Score (168 h, 3 µM): −0.04844 | Z score (168 h, 3 µM): −0.048 | Activity [2]: no

CN(C)CCC=C1c2ccccc2C=Cc2ccccc21 [Cyclobenzaprine hydrochloride]
Z Score [10]: 0.07186 | Z score [4]: 0.072 | Activity [2]: no

Br.C=CCN1CCc2cc(O)c(O)cc2C(c2ccccc2)C1 (centres unmarked) [(B1)-SKF 38393, N-allyl-, hydrobromide]
Z Score: −1.59

(−)-Scopolamine methyl nitrate
Activity [11]: no

CC1(C)CCC=[N+]1[O-] [5,5-Dimethyl-1-pyrroline-N-oxide]
Z Score (168 h, 3 µM): −1.666 | Z score (168 h, 3 µM): −1.666 | Activity [2]: no

CC(C)C[C@H](NP(=O)(O)O[C@@H]1O[C@@H](C)[C@H](O)[C@@H](O)[C@H]1O)C(=O)N[C@@H](Cc1c[nH]c2ccccc12)C(=O)O [Phosphoramidon disodium]
Z Score (168 h, 3 µM): −0.5097 | Z score (168 h, 3 µM): −0.510 | Activity [11]: no

NC(CCCCCP(=O)(O)O)C(=O)O (centres unmarked) [(B1)-2-Amino-7-phosphonoheptanoic acid]
Z Score: −1.02

Nc1ncnc2c1ncn2[C@@H]1O[C@H](C(=O)NC2CC2)[C@@H](O)[C@H]1O [5′-(N-Cyclopropyl)carboxamidoadenosine]
Z Score: −1.701 | Z score [4]: −1.701 | Activity [2]: no

Cc1cc(C(C)(C)C)cc(C)c1CC1=NCCN1 [Xylometazoline hydrochloride]
Z Score: 0.296 | Z score [8]: 0.296 | Activity [9]: no

Piribedil maleate
Z Score [3]: −0.3345 | Z score [1]: −0.334 | Activity [7]: no

Cc1cccc(C(=O)NCN2CCN(c3ccccc3C#N)CC2)c1.O=C(O)/C=C\C(=O)O [PD 168,077 maleate]
Z Score: −1.516 | Z score [1]: −1.516 | Activity [11]: no

CCCCCCCC/C=C\CCCCCCCC(=O)NCCO [N-Oleoylethanolamine]
Z Score (168 h, 3 µM): −0.4116 | Z score (168 h, 3 µM): −0.412 | Activity [11]: no

O=C1CCC(N2C(=O)c3ccccc3C2=O)C(=O)N1 (centres unmarked) [(B1)-Thalidomide]
Z Score: 0.521

O=C(O)C1CCCNC1 (centres unmarked) [(B1)-Nipecotic acid]
Z Score: −0.7215

Cc1nc(N=Nc2cc(S(=O)(=O)[O-])c3cc([N+](=O)[O-])cc(S(=O)(=O)[O-])c3c2)c(COP(=O)([O-])[O-])c(C=O)c1O.[Na+].[Na+].[Na+].[Na+] [PPNDS tetrasodium]
Z Score: −2.067 | Z score [1]: −2.067 | Activity [11]: no

CC[C@H]1CN2CCc3cc(OC)c(OC)cc3[C@@H]2C[C@@H]1C[C@H]1NCCc2cc(OC)c(OC)cc21 [Emetine dihydrochloride hydrate]
Activity: yes | Z Score [5]: −10.63 | Z score [1]: −10.633

CCN(CC)CCNC(=O)c1ccc(N)cc1 [Procainamide hydrochloride]
Z Score [10]: 0.6535 | Z score [1]: 0.654 | Activity [7]: no

NS 521 oxalate
Z Score: −11.27

COc1ccc2c(c1)c(CC(=O)O)c(C)n2Cc1ccc(F)cc1 [1-(4-Fluorobenzyl)-5-methoxy-2-methylindole-3-acetic acid]
Z Score (168 h, 3 µM): −0.5376 | Z score (168 h, 3 µM): −0.538 | Activity [2]: no
